In patent US8192962B2, “Processes for detecting toxic substances” (Daikin Industries, Ltd., priority 2001, dated 2012):

System: Metabolism protein genes
Test: DNA chip mRNA expression in yeast, metabolism protein genes (Table 7)
Format: cell-based, Saccharomyces cerevisiae S288C
Protocol: Yeast (Saccharomyces cerevisiae S288C (α SUC2mal mel gap2 CUP1)) were incubated at 25° C. on YPD medium (yeast extract 1%, polypepton 2%, glucose 2%). One of toxic chemical substances was added to the cells at logarithmic growth phase, and the cells were further incubated for two hours. Cells were cultured without any chemical substance in the same condition, and were used as control. Concentrations of the chemical substances were defined to inhibit the growth of the yeast but not lead to death.
After completion of the incubation, the culture was centrifuged to collect the cells. To the cells, sodium acetate buffer (50 mM sodium acetate, 10 mM EDTA, 1% SDS) was added, and the mixture was shaken at 65° C. for five minutes, followed by returning to room temperature, and obtaining the supernatant, of which the procedures were repeated two times. To the supernatant, ½ amount of a solution of phenol/chloroform was added, and the mixture was centrifuged to give a supernatant, which was added with an equal amount of chloroform, and the mixture was centrifuged to give a supernatant. To the supernatant, an equal amount of isopropanol containing 0.3 M sodium acetate was added, and the mixture was allowed to stand at room temperature for 30 minutes, after which the mixture was centrifuged to give a sediment of the whole RNAs. Seventy % ethanol was added to the sediment, and the mixture was again centrifuged to give a sediment, which was then dried and dissolved in water. mRNA was isolated from the whole RNAs as followings. In view of the fact that a poly A chain is attached to the 3′ terminus of mRNA, a polynucleotide having a poly T structure which was immobilized on the surface of latex beads was used to trap the mRNA, and then the mRNA was washed and eluted with spine column (Oligotex-dT30<Super>mRNA Purification Kit, Takara). Reverse transcription of the mRNA was conducted with a reverse transcriptase (Super Script II Reverse Transcriptase; catalogue No. 18064-014, GibcoBRL) using fluorescence-labeled nucleotides to give cDNAs that were introduced with Cy3-dUTP or Cy5-dUTP during the reverse transcription.
The labeled cDNAs were dissolved in TE buffer (10mM Tris-HCl/1 mM EDTA, pH8.0), and the solution was dropped on the DNA chip containing the whole genes of yeast (DNA Chip Research Inc. Japan) so that the cDNAs were hybridized on the DNA chip at 65° C. for over 12 hours. The fluoresces intensity of the DNA chip was read with a scanner, and the ratio relative to the fluorescence intensity resulting from the absence of chemical substance was estimated as the following, which is shown in Tables 1 to 9: […]

CCCCCCCCCCCCc1ccc(S(=O)(=O)[O-])cc1.[Na+] [(17), sodium dodecylbenzosulfonate]
The level of expressed mRNA in the presence of chemical substance/The level of expressed mRNA in the absence of chemical substance (yeast gene YJR155W): 1.3
The level of expressed mRNA in the presence of chemical substance/The level of expressed mRNA in the absence of chemical substance (yeast gene YKL035W): 1.0
level of expressed mRNA in the presence/in the absence of chemical substance (yeast gene YKL060C): 1.2
The level of expressed mRNA in the presence of chemical substance/The level of expressed mRNA in the absence of chemical substance (yeast gene YKL091C): 1.4
The level of expressed mRNA in the presence of chemical substance/The level of expressed mRNA in the absence of chemical substance (yeast gene YKL104C): 1.0
level of expressed mRNA in the presence/in the absence of chemical substance (yeast gene YKL148C): 0.8
The level of expressed mRNA in the presence of chemical substance/The level of expressed mRNA in the absence of chemical substance (yeast gene YKL152C): 1.1
level of expressed mRNA in the presence/in the absence of chemical substance (yeast gene YKL157W): 1.2
The level of expressed mRNA in the presence of chemical substance/The level of expressed mRNA in the absence of chemical substance (yeast gene YKL213C): 1.4
The level of expressed mRNA in the presence of chemical substance/The level of expressed mRNA in the absence of chemical substance (yeast gene YKL215C): 0.8
level of expressed mRNA in the presence/in the absence of chemical substance (yeast gene YKR034W): 0.8
The level of expressed mRNA in the presence of chemical substance/The level of expressed mRNA in the absence of chemical substance (yeast gene YLL058W): 1.4
level of expressed mRNA in the presence/in the absence of chemical substance (yeast gene YLR006C): 1.6
level of expressed mRNA in the presence/in the absence of chemical substance (yeast gene YLR044C): 0.9
level of expressed mRNA in the presence/in the absence of chemical substance (yeast gene YLR056W): 1.1
level of expressed mRNA in the presence/in the absence of chemical substance (yeast gene YLR058C): 0.8
level of expressed mRNA in the presence/in the absence of chemical substance (yeast gene YLR081W): 0.7
level of expressed mRNA in the presence/in the absence of chemical substance (yeast gene YLR089C): 1.2
The level of expressed mRNA in the presence of chemical substance/The level of expressed mRNA in the absence of chemical substance (yeast gene YLR180W): 0.8
The level of expressed mRNA in the presence of chemical substance/The level of expressed mRNA in the absence of chemical substance (yeast gene YLR273C): 1.0
level of expressed mRNA in the presence/in the absence of chemical substance (yeast gene YLR284C): 2.9
The level of expressed mRNA in the presence of chemical substance/The level of expressed mRNA in the absence of chemical substance (yeast gene YLR299W): 1.3
The level of expressed mRNA in the presence of chemical substance/The level of expressed mRNA in the absence of chemical substance (yeast gene YLR300W): 0.7
level of expressed mRNA in the presence/in the absence of chemical substance (yeast gene YLR304C): 0.5
The level of expressed mRNA in the presence of chemical substance/The level of expressed mRNA in the absence of chemical substance (yeast gene YLR307W): 1.1
The level of expressed mRNA in the presence of chemical substance/The level of expressed mRNA in the absence of chemical substance (yeast gene YLR348C): 1.1
level of expressed mRNA in the presence/in the absence of chemical substance (yeast gene YLR354C): 1.0
level of expressed mRNA in the presence/in the absence of chemical substance (yeast gene YLR372W): 0.5
level of expressed mRNA in the presence/in the absence of chemical substance (yeast gene YML022W): 0.5
The level of expressed mRNA in the presence of chemical substance/The level of expressed mRNA in the absence of chemical substance (yeast gene YML054C): 1.1
The level of expressed mRNA in the presence of chemical substance/The level of expressed mRNA in the absence of chemical substance (yeast gene YML070W): 1.2
The level of expressed mRNA in the presence of chemical substance/The level of expressed mRNA in the absence of chemical substance (yeast gene YML100W): 1.0
The level of expressed mRNA in the presence of chemical substance/The level of expressed mRNA in the absence of chemical substance (yeast gene YMR008C): 3.0
level of expressed mRNA in the presence/in the absence of chemical substance (yeast gene YMR011W): 1.3
level of expressed mRNA in the presence/in the absence of chemical substance (yeast gene YMR015C): 1.0
The level of expressed mRNA in the presence of chemical substance/The level of expressed mRNA in the absence of chemical substance (yeast gene YMR020W): 2.3
level of expressed mRNA in the presence/in the absence of chemical substance (yeast gene YMR083W): 0.9
The level of expressed mRNA in the presence of chemical substance/The level of expressed mRNA in the absence of chemical substance (yeast gene YMR105C): 1.6
The level of expressed mRNA in the presence of chemical substance/The level of expressed mRNA in the absence of chemical substance (yeast gene YMR189W): 1.0
level of expressed mRNA in the presence/in the absence of chemical substance (yeast gene YMR205C): 0.6
level of expressed mRNA in the presence/in the absence of chemical substance (yeast gene YMR261C): 0.7
The level of expressed mRNA in the presence of chemical substance/The level of expressed mRNA in the absence of chemical substance (yeast gene YMR271C): 1.3
The level of expressed mRNA in the presence of chemical substance/The level of expressed mRNA in the absence of chemical substance (yeast gene YMR296C): 0.8
level of expressed mRNA in the presence/in the absence of chemical substance (yeast gene YMR323W): 1.1
The level of expressed mRNA in the presence of chemical substance/The level of expressed mRNA in the absence of chemical substance (yeast gene YNL012W): 1.3
level of expressed mRNA in the presence/in the absence of chemical substance (yeast gene YNL025C): 0.7
The level of expressed mRNA in the presence of chemical substance/The level of expressed mRNA in the absence of chemical substance (yeast gene YNL045W): 1.1
The level of expressed mRNA in the presence of chemical substance/The level of expressed mRNA in the absence of chemical substance (yeast gene YNL104C): 0.9
The level of expressed mRNA in the presence of chemical substance/The level of expressed mRNA in the absence of chemical substance (yeast gene YNL106C): 1.1
The level of expressed mRNA in the presence of chemical substance/The level of expressed mRNA in the absence of chemical substance (yeast gene YNL169C): 1.1
level of expressed mRNA in the presence/in the absence of chemical substance (yeast gene YNL192W): 2.3
The level of expressed mRNA in the presence of chemical substance/The level of expressed mRNA in the absence of chemical substance (yeast gene YNL231C): 3.1
The level of expressed mRNA in the presence of chemical substance/The level of expressed mRNA in the absence of chemical substance (yeast gene YNL322C): 0.9
The level of expressed mRNA in the presence of chemical substance/The level of expressed mRNA in the absence of chemical substance (yeast gene YNL331C): 1.7
The level of expressed mRNA in the presence of chemical substance/The level of expressed mRNA in the absence of chemical substance (yeast gene YNL332W): 1.0
The level of expressed mRNA in the presence of chemical substance/The level of expressed mRNA in the absence of chemical substance (yeast gene YNR019W): 2.4
The level of expressed mRNA in the presence of chemical substance/The level of expressed mRNA in the absence of chemical substance (yeast gene YNR033W): 0.9
The level of expressed mRNA in the presence of chemical substance/The level of expressed mRNA in the absence of chemical substance (yeast gene YNR059W): 2.6
The level of expressed mRNA in the presence of chemical substance/The level of expressed mRNA in the absence of chemical substance (yeast gene YOL058W): 1.2
level of expressed mRNA in the presence/in the absence of chemical substance (yeast gene YOL086C): 1.1
level of expressed mRNA in the presence/in the absence of chemical substance (yeast gene YOL108C): 1.5
level of expressed mRNA in the presence/in the absence of chemical substance (yeast gene YOL116W): 1.1
The level of expressed mRNA in the presence of chemical substance/The level of expressed mRNA in the absence of chemical substance (yeast gene YOL126C): 1.6
The level of expressed mRNA in the presence of chemical substance/The level of expressed mRNA in the absence of chemical substance (yeast gene YOL153C): 1.1
level of expressed mRNA in the presence/in the absence of chemical substance (yeast gene YOL156W): 0.9
The level of expressed mRNA in the presence of chemical substance/The level of expressed mRNA in the absence of chemical substance (yeast gene YOL165C): 1.6
level of expressed mRNA in the presence/in the absence of chemical substance (yeast gene YOR002W): 0.9
level of expressed mRNA in the presence/in the absence of chemical substance (yeast gene YOR085W): 0.9
The level of expressed mRNA in the presence of chemical substance/The level of expressed mRNA in the absence of chemical substance (yeast gene YOR099W): 1.2
level of expressed mRNA in the presence/in the absence of chemical substance (yeast gene YOR103C): 1.1
level of expressed mRNA in the presence/in the absence of chemical substance (yeast gene YOR108W): 1.1
level of expressed mRNA in the presence/in the absence of chemical substance (yeast gene YOR128C): 1.2
The level of expressed mRNA in the presence of chemical substance/The level of expressed mRNA in the absence of chemical substance (yeast gene YOR130C): 1.5
level of expressed mRNA in the presence/in the absence of chemical substance (yeast gene YOR142W): 0.9
level of expressed mRNA in the presence/in the absence of chemical substance (yeast gene YOR176W): 1.2
level of expressed mRNA in the presence/in the absence of chemical substance (yeast gene YOR178C): 1.0
level of expressed mRNA in the presence/in the absence of chemical substance (yeast gene YOR251C): 0.9
The level of expressed mRNA in the presence of chemical substance/The level of expressed mRNA in the absence of chemical substance (yeast gene YOR336W): 1.0
The level of expressed mRNA in the presence of chemical substance/The level of expressed mRNA in the absence of chemical substance (yeast gene YOR347C): 1.7
level of expressed mRNA in the presence/in the absence of chemical substance (yeast gene YOR348C): 0.9
The level of expressed mRNA in the presence of chemical substance/The level of expressed mRNA in the absence of chemical substance (yeast gene YPL017C): 1.3
level of expressed mRNA in the presence/in the absence of chemical substance (yeast gene YPL028W): 1.4
level of expressed mRNA in the presence/in the absence of chemical substance (yeast gene YPL057C): 2.2
level of expressed mRNA in the presence/in the absence of chemical substance (yeast gene YPL135W): 1.5
level of expressed mRNA in the presence/in the absence of chemical substance (yeast gene YPL148C): 1.0
The level of expressed mRNA in the presence of chemical substance/The level of expressed mRNA in the absence of chemical substance (yeast gene YPR026W): 0.9
level of expressed mRNA in the presence/in the absence of chemical substance (yeast gene YPR113W): 1.2
level of expressed mRNA in the presence/in the absence of chemical substance (yeast gene YPR165W): 2.3
The level of expressed mRNA in the presence of chemical substance/The level of expressed mRNA in the absence of chemical substance (yeast gene YPR167C): 1.7
level of expressed mRNA in the presence/in the absence of chemical substance (yeast gene YPR183W): 1.2
